Results on seven compounds are retold here after patent US20240376052A1, “N-SUBSTITUTED INDOLE DERIVATIVES AS SEROTONERGIC AGENTS USEFUL FOR THE TREATMENT OF DISORDERS RELATED THERETO” (Mindset Pharma Inc., priority 2021, published 2024).

Data set [1] concerns the target human 5-HT2A receptor (Homo sapiens (Human), UniProt P28223). Kind of data set: Human 5-HT2A radioligand binding assay ([3H]-ketanserin).
Data set [2] can be described thus: Liver microsomes stability, human. Particulars: for Predicted hepatic CL: Human liver microsomes; for Remaining Percentage (%): Human; for CLint scaled at 2 μM / half-life at 2 μM / microsomal CLint at 2 μM: human, microsomes. Here is the method: (§1) The objective of this study was to estimate in vitro metabolic stability of representative compounds of the application in pooled human and male mouse liver microsomes. The concentrations of parent compounds in reaction systems were evaluated by LC-MS/MS for estimating the stability in pooled human and male mouse liver microsomes. The in vitro intrinsic clearances of test compounds were determined as well.
(§2) A master solution in the “Incubation Plate” containing phosphate buffer, ultra-pure H2O, MgCl2 solution and liver microsomes was made according to Table 3. The mixture was pre-warmed at 37° C. water bath for 5 minutes.
(§3) 40 μL of 10 mM NADPH solution was added to each well. The final concentration of NADPH was 1 mM. The negative control samples were prepared by replacing NADPH with 40 μL of ultra-pure H2O. Samples were prepared in duplicate. Negative controls were prepared in singlet.
(§4) The reaction was started with the addition of 4 μL of 200 μM test compounds or control compounds to each master solution to get the final concentration of 2 μM. This study was performed in duplicate.
(§5) Aliquots of 50 μL were taken from the reaction solution at 0, 15, 30, 45 and 60 minutes. The reaction solutions were stopped by the addition of 4 volumes of cold methanol with IS (100 nM alprazolam, 200 nM imipramine, 200 nM labetalol and 2 μM ketoprofen). Samples were centrifuged at 3,220 g for 40 minutes. Aliquot of 90 μL of the supernatant was mixed with 90 μL of ultra-pure H2O and then was used for LC-MS/MS analysis.
(§6) LC/MS analysis was performed for all samples from this study using a Shimadzu liquid chromatograph separation system equipped with degasser DGU-20A5R; solvent delivery unit LC-30AD; system controller SIL-30AC; column oven CTO-30A; CTC Analytics HTC PAL System. Mass spectrometric analysis was performed using an Triple Quad™ 5500 instrument.
(§7) All calculations were carried out using Microsoft Excel. Peak area ratios of test compound to internal standard (listed in the below table) were determined from extracted ion chromatograms.
(§8) All calculations were carried out using Microsoft Excel. Peak areas were determined from extracted ion chromatograms. The slope value, k, was determined by linear regression of the natural logarithm of the remaining percentage of the parent drug vs. incubation time curve.
(§9) The in vitro half-life (in vitro t1/2) was determined from the slope value:
(§10) Conversion of the in vitro t1/2(min) into the in vitro intrinsic clearance (in vitro CLint, in μL/min/mg proteins) was done using the following equation (mean of duplicate determinations): […]

A short description of data set [3]: Liver microsomes stability, dog. Particulars: for Predicted hepatic CL: Dog liver microsomes; for Remaining Percentage (%): Dog; for CLint scaled at 2 μM / half-life at 2 μM / microsomal CLint at 2 μM: dog, microsomes.
Data set [4] can be described thus: Liver microsomes stability, mouse. The conditions noted are these: for Predicted hepatic CL: Mouse liver microsomes; for Remaining Percentage (%): Mouse; for CLint scaled at 2 μM / half-life at 2 μM / microsomal CLint at 2 μM: male, mouse, microsomes. Here is the method:
as §1, §2, §3, §4, §5, §6, §7, §8, §9, §10

A short description of data set [5]: Liver microsomes stability, rat. Particulars: for Predicted hepatic CL: Rat liver microsomes; for Remaining Percentage (%): Rat; for CLint scaled at 2 μM / half-life at 2 μM / microsomal CLint at 2 μM: rat, microsomes. Here is the method:
as §1, §2, §3, §4, §5, §6, §7, §8, §9, §10

The mark [6] stands for this setting: [3H]-ketanserin competition, read-out: h5-HT2A IC50.

Where two headings read alike, the source gives them in different places.

By IC50 is commonly meant the point on the concentration scale where inhibition reaches its midpoint. The CLint scaled is a measure of how fast metabolising enzymes remove a compound, apart from limits set by blood flow. A lower CLint scaled goes with slow turnover. For orientation: half-life means the time needed for the level to fall by half in the phase considered. Read a high half-life as slow decline. The term microsomal CLint denotes the rate of metabolic loss divided by the concentration. A lower microsomal CLint goes with slow turnover.

As for `CCCCC/C=C\C/C=C\CCCCCCCC(=O)n1cc(C2CCN(C)C2)c2ccccc21` (racemic) [Compound I-12, (9Z,12Z)-1-(3-(1-Methylpyrrolidin-3-yl)-1H-indol-1-yl)octadeca-9,12-dien-1-one], the IC50 in data set [1] (setting [6]) was in the range of 2000 to 5000 nM.
With `CCCCC/C=C\C/C=C\CCCCCCCC(=O)n1cc(C2CCN(C)C2)c2cc(OC)ccc21` (racemic) [Compound I-13, (9Z,12Z)-1-(5-Methoxy-3-(1-methylpyrrolidin-3-yl)-1H-indol-1-yl)octadeca-9,12-dien-1-one], the half-maximal inhibitory concentration (IC50) in data set [1] (setting [6]) lay in the range of 2000 to 5000 nM.
Regarding `[2H]C([2H])([2H])Oc1ccc2c(c1)c(C([2H])([2H])C([2H])([2H])N(C([2H])([2H])[2H])C([2H])([2H])[2H])cn2C(=O)CCCCCCC/C=C\C/C=C\CCCCC` [Compound I-4, (9Z,12Z)-1-(3-(2-(Bis(methyl-d3)amino)ethyl-1,1,2,2-d4)-5-(methoxy-d3)-1H-indol-1-yl)octadeca-9,12-dien-1-one], the IC50 in data set [1] is less than 2000 nM.
Regarding `CCCCC/C=C\C/C=C\CCCCCCCC(=O)n1cc(C[C@H]2CCCN2C)c2ccccc21` [Compound I-5, (9Z,12Z)-1-(3-(((R)-1-Methylpyrrolidin-2-yl)methyl)-1H-indol-1-yl)octadeca-9,12-dien-1-one], the “Predicted hepatic CL” value is recorded as 6.42 mL/min/kg in data set [2], 21.51 mL/min/kg in data set [3], 41.60 mL/min/kg in data set [4] and 24.83 mL/min/kg in data set [5]. Further, the “Remaining Percentage (%)” value in data set [2] (With NADPH, 0 min) is listed as 100.00%; in data set [2] (With NADPH, 30 min), 86.52%; in data set [2] (With NADPH, 60 min), 80.05%; in data set [2] (Without NADPH, 0 min) it was 100.00%; in data set [2] (Without NADPH, 30 min), 85.69%; in data set [2] (Without NADPH, 60 min) it was 80.25%. In addition, the “Remaining Percentage (%)” value worked out at 100.00% in data set [3] (With NADPH, 0 min); 65.44% in data set [3] (With NADPH, 30 min); 42.66% in data set [3] (With NADPH, 60 min); 100.00% in data set [3] (Without NADPH, 0 min); 87.66% in data set [3] (Without NADPH, 30 min); 90.58% in data set [3] (Without NADPH, 60 min). Moreover, the “Remaining Percentage (%)” value is reported as 100.00% in data set [4] (With NADPH, 0 min); 74.79% in data set [4] (With NADPH, 30 min); 58.84% in data set [4] (With NADPH, 60 min); 100.00% in data set [4] (Without NADPH, 0 min); 80.19% in data set [4] (Without NADPH, 30 min); 90.42% in data set [4] (Without NADPH, 60 min). The “Remaining Percentage (%)” value was found to be 100.00% in data set [5] (With NADPH, 0 min); 69.74% in data set [5] (With NADPH, 30 min); 46.98% in data set [5] (With NADPH, 60 min); 100.00% in data set [5] (Without NADPH, 0 min); 97.35% in data set [5] (Without NADPH, 30 min); 95.87% in data set [5] (Without NADPH, 60 min). Also, the CLint scaled at 2 μM in data set [2] worked out at 9.3 mL/min/kg; in data set [3], 70.8 mL/min/kg; in data set [4], 77.3 mL/min/kg; in data set [5], 45.1 mL/min/kg. Moreover, the half-life at 2 μM in data set [2] was 3.11 h; in data set [3], 0.814 h; in data set [4], 1.31 h; in data set [5], 0.917 h. Also, the microsomal CLint at 2 μM in data set [2] worked out at 7.42 µL/min/mg; in data set [3], 28.4 µL/min/mg; in data set [4] it was 17.7 µL/min/mg; in data set [5], 25.2 µL/min/mg. Moreover, in data set [1], the half-inhibitory concentration (IC50) was less than 2000 nM.
Consider `CCCCC/C=C\C/C=C\CCCCCCCC(=O)n1cc(C[C@H]2CCCN2C)c2cc(OC)ccc21` [Compound I-6, (9Z,12Z)-1-(5-Methoxy-3-(((R)-1-methylpyrrolidin-2-yl)methyl)-1H-indol-1-yl)octadeca-9,12-dien-1-one], for which the “Predicted hepatic CL” value in data set [2] is given as 4.62 mL/min/kg; in data set [3], 22.75 mL/min/kg; in data set [4], 33.37 mL/min/kg; in data set [5] it was 14.24 mL/min/kg. Also, the “Remaining Percentage (%)” value in data set [2] (With NADPH, 0 min) came to 100.00%; in data set [2] (With NADPH, 30 min), 91.33%; in data set [2] (With NADPH, 60 min) it was 86.76%; in data set [2] (Without NADPH, 0 min) it was 100.00%; in data set [2] (Without NADPH, 30 min), 89.58%; in data set [2] (Without NADPH, 60 min), 83.22%. For the same compound, the “Remaining Percentage (%)” value in data set [3] (With NADPH, 0 min) came out at 100.00%; in data set [3] (With NADPH, 30 min) it was 49.51%; in data set [3] (With NADPH, 60 min), 35.40%; in data set [3] (Without NADPH, 0 min), 100.00%; in data set [3] (Without NADPH, 30 min) it was 84.09%; in data set [3] (Without NADPH, 60 min), 91.76%. The “Remaining Percentage (%)” value came to 100.00% in data set [4] (With NADPH, 0 min); 76.15% in data set [4] (With NADPH, 30 min); 69.51% in data set [4] (With NADPH, 60 min); 100.00% in data set [4] (Without NADPH, 0 min); 81.25% in data set [4] (Without NADPH, 30 min); 91.07% in data set [4] (Without NADPH, 60 min). The “Remaining Percentage (%)” value in data set [5] (With NADPH, 0 min) was 100.00%; in data set [5] (With NADPH, 30 min), 83.04%; in data set [5] (With NADPH, 60 min), 72.53%; in data set [5] (Without NADPH, 0 min), 100.00%; in data set [5] (Without NADPH, 30 min), 93.17%; in data set [5] (Without NADPH, 60 min), 92.62%. The intrinsic clearance (CLint scaled) at 2 μM stood at 5.94 mL/min/kg in data set [2], 86.3 mL/min/kg in data set [3], 53 mL/min/kg in data set [4] and 19.2 mL/min/kg in data set [5]. Also, the half-life at 2 μM in data set [2] came out at 4.88 h; in data set [3], 0.667 h; in data set [4], 1.91 h; in data set [5], 2.16 h. For the same compound, the microsomal CLint at 2 μM in data set [2] is 4.74 µL/min/mg; in data set [3], 34.6 µL/min/mg; in data set [4], 12.1 µL/min/mg; in data set [5], 10.7 µL/min/mg. This compound also displayed a half-inhibitory concentration (IC50) in data set [1] of less than 2000 nM.
Compound `[2H]c1c([2H])c([2H])c2c(c1[2H])c(CCN(C([2H])([2H])[2H])C([2H])([2H])[2H])c([2H])n2C(=O)CCCCCCC/C=C\C/C=C\CCCCC` [Compound I-7, (9Z,12Z)-1-(3-(2-(Bis(methyl-d3)amino)ethyl)-1H-indol-1-yl-2,4,5,6,7-d5)octadeca-9,12-dien-1-one] returned a 50% inhibitory concentration (IC50) in data set [1] of 2000 to 5000 nM.
`[2H]C([2H])([2H])N(C([2H])([2H])[2H])C([2H])([2H])C([2H])([2H])c1cn(C(=O)CCCCCCC/C=C\C/C=C\CCCCC)c2cccc(F)c12` [Compound I-9, (9Z,12Z)-1-(3-(2-(Bis(methyl-d3)amino)ethyl-1,1,2,2-d4)-4-fluoro-1H-indol-1-yl)octadeca-9,12-dien-1-one] yielded an IC50 in data set [1] of 2000 to 5000 nM.
